{"source": "patent US20080108548A1", "about": "“Food Composition For Rapidly Attenuating Inflammatory Responses” (priority 2004, published 2008)", "tested_on": "rats subjected to hemorrhagic shock", "protocol": "Using the non-lethal hemorrhagic shock model as described earlier (Luyer et al., Ann. Surg. 239:257-264, 2004; Luyer et al. Shock 21:65-71, 2004) rats were anesthetised, the femoral artery was dissected and cannulated. Mean arterial pressure (MAP) and heart rate were continuously recorded for 50 min. At the time of shock (t=0), 2.1 ml blood per 100 g body weight was taken at a rate of 1 ml/min (34-40% of total blood volume). At 45 min before induction of hemorrhagic shock, rats were subjected to vagotomy or sham vagotomy. In vagotomised animals a ventral cervical incision was made and both vagal trunks exposed. The vagus nerve was ligated at both ends using 4-0 silk suture and divided. In sham-operated animals, both vagal trunks were exposed, but the vagus nerve was not ligated and divided.\nBefore the experiments, 18 rats were fasted, 18 were fed with low-fat feed (6.9 en % protein, 75.4 en % carbohydrate, 16.7 en % fat) and 18 were fat with a high-fat feed according to the invention (6.9 en % protein, 40.9 en % carbohydrate, 52.2 en % fat). The low-fat and high-fat feeds were isocaloric. 3 ml was given at 18 h before hemorrhagic shock, and 0.75 ml at 2 h and 45 min before hemorrhagic by oral gavage. Fasted and high-fat fed rats underwent vagotomy or sham vagotomy. To investigate the role of CCK, six high-fat fed animas were injected i.v. with CCK-A (500 μg/kg) and CCK-B (500 μg/kg) receptor antagonists and six with control vehicle 25 min before induction of shock. […] At 90 min after hemorrhagic shock, blood was taken and segments of small bowel were harvested for determination of gut permeability. Plasma was separated by centrifugation, frozen immediately and stored until analysis.", "key": {"[1]": {"details": "high-fat fed rats given the blocker i.v. 25 min before shock, compared to high-fat controls"}, "[2]": {"details": "high-fat rats treated with chlorisondamine versus chlorisondamine-treated fasted rats"}}, "data": [{"compound": "C[N+](C)(C)CC[N+]1(C)Cc2c(Cl)c(Cl)c(Cl)c(Cl)c2C1", "note": "[chlorisondamine]", "values": [{"measurement": "bacterial translocation to distant organs", "setting": "[1]", "value": "increased"}, {"measurement": "plasma endotoxin", "setting": "[1]", "value": "elevated"}, {"measurement": "inhibitory effect of high-fat enteral nutrition on circulating TNF-α", "setting": "high-fat fed sham-vagotomised rats, i.v. 25 min before shock", "value": "abrogated"}, {"measurement": "IL-6 levels", "setting": "[2]", "value": "comparable"}, {"measurement": "TNF-α levels", "setting": "[2]", "value": "comparable"}, {"measurement": "MAP", "setting": "rat, in vivo", "value": "significantly lower"}, {"measurement": "additional hypotension or changes in heart rate", "setting": "rat, in vivo", "value": "did not cause"}, {"measurement": "decrease in MAP associated with administration", "setting": "rat, in vivo, iv", "value": "100 to 65", "unit": "mm Hg"}]}]}
